Measured values: patent EP4670717A1, “PYRROLIDINE-FUSED MYRTANOL DERIVATIVES AS INHIBITORS AND/OR DEGRADERS OF IDO1 UND USE THEREOF” (Max-Planck-Gesellschaft zur Förderung der Wissenschaften …, priority 2024, dated 2025)
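Also: kyn levels expressed relative to DMSO-treated control cells.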

Each compound was assayed against T1, IDO1 (Homo sapiens, UniProt P14902) (assay: Kyn assay in BxPC-3 cells (Kyn levels after IFN-γ and Trp)). Conditions: BxPC-3 cells incubated with IFN-γ, Trp and the compounds for 48 h; read-out: Kyn assay IC50 ± SD.
T1 construct: BxPC3 cells were seeded in phenol red-free RPMI 1640 medium; endogenous in cells; host or cells: BxPC3 cells stimulated with IFN-γ (50 ng/mL)
T1 sequence (P14902 whole entry): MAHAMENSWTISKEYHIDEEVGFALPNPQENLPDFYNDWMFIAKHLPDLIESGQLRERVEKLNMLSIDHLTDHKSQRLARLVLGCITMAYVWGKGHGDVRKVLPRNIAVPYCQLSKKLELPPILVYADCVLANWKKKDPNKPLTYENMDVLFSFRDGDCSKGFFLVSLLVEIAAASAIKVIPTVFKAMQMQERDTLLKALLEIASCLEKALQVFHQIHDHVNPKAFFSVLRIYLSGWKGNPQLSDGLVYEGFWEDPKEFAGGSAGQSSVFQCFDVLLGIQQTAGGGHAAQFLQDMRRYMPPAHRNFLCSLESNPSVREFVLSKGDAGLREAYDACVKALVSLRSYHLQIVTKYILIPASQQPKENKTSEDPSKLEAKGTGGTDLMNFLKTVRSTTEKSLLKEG
Format: cell-based
Description: BxPC3 cells were seeded in phenol red-free RPMI 1640 medium in 1536-well or 384-well plates (Greiner #782086, Corning #3770) 24 h prior to the addition of compounds, IFN-γ (50 ng/mL, PeproTech) and L-Trp (380 µM, Sigmal-Aldrich). After 48 h of incubation, first cell viability was accessed by the addition of Hoechst-33342. Afterwards, trichloroacetic acid (TCA, Sigma-Aldrich) was added to a final concentration of 7 % and incubated for 10 min prior to a centrifugation step of 10 min at 1620 × g. Kyn levels were determined by means of the Kyn sensor^7 at a final concentration of 17.5 µM in sensor buffer (50 mM H3PO4 and 120 mM NaCl (pH=1)). Fluorescence intensity (excitation: 535 nm, emission: 595 nm) was measured using a Spectramax Paradigm reader (Molecular Devices). Data were normalized to the values for cells that were treated with DMSO.
For the manual assay, BxPC3 or SKOV3 cells were seeded in clear 96-well or 384-well plates, respectively, 24 h prior to compound treatment and IFN-γ (50 or 5 ng/mL, respectively) and L-Trp (380 µM) addition as described before.^7 48 h after treatment, TCA was added and Kyn levels were detected by means of 2 % w/v of p-DMAB (Ehrlich reagent) in acetic acid as described by Braun et al^29. The absorbance of the Ehrlich reagent was detected at 492 nm and at 650 nm as background control was measured on Spark® multimode microplate plate reader (Tecan, Austria). Kyn levels were determined by subtracting the absorbance value at 650 nm and presented relative to the DMSO control. Dose-response curves and IC50 values were generated and fitted with GraphPad Prism 6.0 (GraphPad software, USA) using four-parameter variable slope non-linear regression curve fit.
Cells were incubated with IFN-γ, Trp and the compounds for 48 h prior to detection of Kyn levels.
Compound `Cc1ccccc1S(=O)(=O)N1C[C@H]2C[C@H]3C[C@H](C3(C)C)[C@@]2(COC(=O)Nc2ccc(I)cc2)C1` [compound 39, ((3aS,4R,6R,7aS)-5,5-dimethyl-2-(o-tolylsulfonyl)octahydro-3aH-4,6-methanoisoindol-3a-yl)methyl (4-iodophenyl)carbamate] has an IC50 of 0.2 to 1 µM. `COCCOCC(C)(C)c1ccc(S(=O)(=O)N2C[C@H]3C[C@H]4C[C@H](C4(C)C)[C@@]3(COC(=O)Nc3ccc(I)cc3)C2)cc1` [compound 58, ((3aS,4R,6R,7aS)-2-((4-(1-(2-methoxyethoxy)-2-methylpropan-2-yl)phenyl)sulfonyl)-5,5-dimethyloctahydro-3aH-4,6-methanoisoindol-3a-yl)methyl (4-iodophenyl)carbamate] showed an IC50 of under 0.2 µM. `COC(=O)C(C)(C)c1ccc(S(=O)(=O)N2C[C@H]3C[C@H]4C[C@H](C4(C)C)[C@@]3(COC(=O)Nc3ccc(I)cc3)C2)c(OC)c1` [compound 66, Methyl 2-(4-(((3aS,4R,6R,7aS)-3a-((((4-iodophenyl)carbamoyl)oxy)methyl)-5,5-dimethyloctahydro-2H-4,6-methanoisoindol-2-yl)sulfonyl)-3-methoxyphenyl)-2-methylpropanoate] gave an IC50 of under 0.2 µM. For `Cc1ccc(NC(=O)OC[C@]23CN(S(=O)(=O)c4ccccc4Br)C[C@H]2C[C@H]2C[C@@H]3C2(C)C)cc1` [compound 36, ((3aS,4R,6R,7aS)-2-((2-bromophenyl)sulfonyl)-5,5-dimethyloctahydro-3aH-4,6-methanoisoindol-3a-yl)methyl p-tolylcarbamate], the IC50 was 5 to 10 µM. With `Cc1cccc(S(=O)(=O)N2C[C@H]3C[C@H]4C[C@H](C4(C)C)[C@@]3(COC(=O)Nc3ccc(I)cc3)C2)c1` [compound 40, ((3aS,4R,6R,7aS)-5,5-dimethyl-2-(m-tolylsulfonyl)octahydro-3aH-4,6-methanoisoindol-3a-yl)methyl (4-iodophenyl)carbamate] the IC50 was 1 to 5 µM. `Cc1ccc(NC(=O)OC[C@]23CN(S(=O)(=O)C(C)C)C[C@H]2C[C@H]2C[C@@H]3C2(C)C)cc1` [compound 30, ((3aS,4R,6R,7aS)-2-(isopropylsulfonyl)-5,5-dimethyloctahydro-3aH-4,6-methanoisoindol-3a-yl) methyl p-tolylcarbamate] was tested, and the IC50 was 1 to 5 µM. For `Cc1ccc(NC(=O)OC[C@]23CN(S(=O)(=O)c4ccc(C(F)(F)F)cc4)C[C@H]2C[C@H]2C[C@@H]3C2(C)C)cc1` [compound 32, ((3aS,4R,6R,7aS)-5,5-dimethyl-2-((4-(trifluoromethyl)phenyl)sulfonyl)octahydro-3aH-4,6-methanoisoindol-3a-yl)methyl p-tolylcarbamate], the IC50 was 1 to 5 µM. `COc1ccc(NC(=O)OC[C@]23CN(S(=O)(=O)c4ccc(C(C)(C)C)cc4)C[C@H]2C[C@H]2C[C@@H]3C2(C)C)cc1` [compound 20, ((3aS,4R,6R,7aS)-2-((4-(tert-butyl)phenyl)sulfonyl)-5,5-dimethyloctahydro-3aH-4,6-methanoisoindol-3a-yl)methyl (4-methoxyphenyl)carbamate] was tested, and the IC50 was 1 to 5 µM. With `CCOC(=O)C(C)(C)c1ccc(S(=O)(=O)N2C[C@H]3C[C@H]4C[C@H](C4(C)C)[C@@]3(COC(=O)Nc3ccc(I)cc3)C2)cc1` [compound 64, Ethyl 2-(4-(((3aS,4R,6R,7aS)-3a-((((4-iodophenyl)carbamoyl)oxy)methyl)-5,5-dimethyloctahydro-2H-4,6-methanoisoindol-2-yl)sulfonyl)phenyl)-2-methylpropanoate] the IC50 was 0.2 to 1 µM. Compound `CC1(C)CCC(C)(C)c2cc(S(=O)(=O)N3C[C@H]4C[C@H]5C[C@H](C5(C)C)[C@@]4(COC(=O)Nc4ccc(I)cc4)C3)ccc21` [compound 46] has an IC50 of 0.2 to 1 µM. Compound `CC(C)(C)c1ccc(S(=O)(=O)N2C[C@H]3C[C@H]4C[C@H](C4(C)C)[C@@]3(COC(=O)Nc3ccc(Cl)cc3)C2)cc1` [compound 9, ((3aS,4R,6R,7aS)-2-((4-(tert-butyl)phenyl)sulfonyl)-5,5-dimethyloctahydro-3aH-4,6-methanoisoindol-3a-yl)methyl (4-chlorophenyl)carbamate] has an IC50 of 0.2 to 1 µM.
